Data: ChEMBL document CHEMBL4130347, “Molecular topology: A new strategy for antimicrobial resistance control” (2017)
In brackets after ≈: the same amount, converted by molar mass. Activity calls are given as the source filed them. The rule behind the calls is not given here.

How the values were obtained:
Escherichia coli = test: Antibacterial activity against Escherichia coli ATCC 25922 by microdilution method; type: functional, organism-based
Staphylococcus aureus [1] = test: Antibacterial activity against methicillin-resistant Staphylococcus aureus ATCC 33591 assessed as decrease in levels of viable bacteria at 2 times MIC after 4 hrs by time-kill assay; type: functional
Staphylococcus aureus [2] = test: Antibacterial activity against methicillin-susceptible Staphylococcus aureus ATCC 25923 by microdilution method; type: functional
Staphylococcus aureus [3] = test: Antibacterial activity against methicillin-resistant Staphylococcus aureus ATCC 33591 by microdilution method; type: functional
[4] = system: Staphylococcus epidermidis; test: Antibacterial activity against Staphylococcus epidermidis ATCC 12228 by microdilution method; type: functional, organism-based
Staphylococcus aureus [5] = test: Antibacterial activity against methicillin-resistant Staphylococcus aureus ATCC 33591 assessed as growth inhibition after 48 hrs; type: functional, organism-based
Staphylococcus aureus [6] = test: Antibacterial activity against methicillin-resistant Staphylococcus aureus ATCC 33591 assessed as decrease in levels of viable bacteria at 2 times MIC after 8 hrs by time-kill assay; type: functional
Staphylococcus aureus [7] = test: Antibacterial activity against methicillin-resistant Staphylococcus aureus ATCC 33591 assessed as decrease in levels of viable bacteria at 2 times MIC after 24 hrs by time-kill assay; type: functional
Enterococcus faecalis = test: Antibacterial activity against Enterococcus faecalis ATCC 51299 by microdilution method; type: functional
Bacteria [8] = test: Inhibition of bacterial RecA expressed in Escherichia coli ATCC 25922 harboring GyrA Ser83Leu mutant/ParC Ser80Arg mutant/GyrA Asp87Asn mutant/marR deletion mutant assessed as decrease in SOS induction at 50 uM after 8 hrs in presence of 0.25 times MIC of ciprofloxacin by fluorescence assay relative to control
Bacteria [9] = test: Inhibition of bacterial RecA expressed in Escherichia coli ATCC 25922 assessed as decrease in SOS induction at 50 uM after 8 hrs in presence of 0.25 times MIC of ciprofloxacin by fluorescence assay relative to control
Bacteria [10] = test: Inhibition of bacterial RecA expressed in Escherichia coli ATCC 25922 harboring GyrA Ser83Leu mutant/ParC Ser80Arg mutant/GyrA Asp87Asn mutant assessed as decrease in SOS induction at 50 uM after 8 hrs in presence of 0.25 times MIC of ciprofloxacin by fluorescence assay relative to control
Bacteria [11] = test: Inhibition of bacterial RecA expressed in Escherichia coli ATCC 25922 harboring GyrA Ser83Leu mutant assessed as decrease in SOS induction at 50 uM after 8 hrs in presence of 0.25 times MIC of ciprofloxacin by fluorescence assay relative to control
Bacteria [12] = test: Inhibition of bacterial RecA expressed in Escherichia coli ATCC 25922 harboring GyrA Ser83Leu mutant/ParC Ser80Arg mutant assessed as decrease in SOS induction at 50 uM after 8 hrs in presence of 0.25 times MIC of ciprofloxacin by fluorescence assay relative to control

| SMILES | Activity (Escherichia coli) | Activity (Staphylococcus aureus [1]) | MIC (Staphylococcus aureus [2]) | MIC (Staphylococcus aureus [3]) | Activity [4] | growth inhibition (GI) (Staphylococcus aureus [5]) | Activity (Staphylococcus aureus [6]) | Activity (Staphylococcus aureus [7]) | Activity (Enterococcus faecalis) | inhibition (Bacteria [8]) | inhibition (Bacteria [9]) | inhibition (Bacteria [10]) | inhibition (Bacteria [11]) | inhibition (Bacteria [12]) | MIC (Enterococcus faecalis) |
| --- | --- | --- | --- | --- | --- | --- | --- | --- | --- | --- | --- | --- | --- | --- | --- |
| CCN(CC)CCN1C(=O)C(O)=C(C(=O)c2ccc(OC)cc2)C1c1ccc(C)o1 (configuration not stated) | inactive | 1.5 deltalog10CFU/ml | 16 to 128 µg/mL (≈ 38.8 to 310 µM) | 16 to 128 µg/mL (≈ 38.8 to 310 µM) | Active | Dose-dependent effect | 2.5 deltalog10CFU/ml | 4 deltalog10CFU/ml | inactive |  |  |  |  |  |  |
| O=C(O)CSc1cc(NS(=O)(=O)c2ccc(Cl)cc2)c2ccccc2c1O | Active |  | 16 to 128 µg/mL (≈ 37.7 to 302 µM) | 16 to 128 µg/mL (≈ 37.7 to 302 µM) |  |  |  |  |  | 31 to 47% | 31 to 47% | 31 to 47% | 31 to 47% | 31 to 47% |  |
| NNc1ccc(S(=O)(=O)N2CCOCC2)cc1[N+](=O)[O-] | inactive |  | 16 to 128 µg/mL (≈ 52.9 to 423 µM) | 16 to 128 µg/mL (≈ 52.9 to 423 µM) | Active |  |  |  | Active |  |  |  |  |  |  |
| O=C(CCN1CCOCC1)NNC(=O)c1ccc([N+](=O)[O-])cc1[N+](=O)[O-] | inactive |  | 16 to 128 µg/mL (≈ 43.6 to 348 µM) | 16 to 128 µg/mL (≈ 43.6 to 348 µM) | Active |  |  |  |  |  |  |  |  |  | 32 to 128 µg/mL (≈ 87.1 to 348 µM) |
| COc1cc(C(=O)OCCCn2c(=O)c3c(nc(N4CCN(CCO)CC4)n3C)n(C)c2=O)cc(O)c1OC | inactive |  | 16 to 128 µg/mL (≈ 29.3 to 234 µM) | 16 to 128 µg/mL (≈ 29.3 to 234 µM) | Active |  |  |  | Active |  |  |  |  |  |  |
| COCCOC(=O)C1=C(C)OC(N)=C(C#N)C12C(=O)N(CC(=O)OC)c1ccccc12 (configuration not stated) | inactive |  | 16 to 128 µg/mL (≈ 37.4 to 299 µM) | 16 to 128 µg/mL (≈ 37.4 to 299 µM) | Active |  |  |  |  |  |  |  |  |  | 32 to 128 µg/mL (≈ 74.9 to 299 µM) |
| COc1cc(C(=O)OCCn2c(N3CCN(CCO)CC3)nc3c2c(=O)n(C)c(=O)n3C)cc(OC)c1OC | inactive |  | 16 to 128 µg/mL (≈ 29.3 to 234 µM) | 16 to 128 µg/mL (≈ 29.3 to 234 µM) | Active |  |  |  |  |  |  |  |  |  | 32 to 128 µg/mL (≈ 58.5 to 234 µM) |
